Our source for the IC50 values is ChEMBL document CHEMBL3639022, “Azolopyridin-3-one derivatives as inhibitors of lipases and phospholipases” (2015).

Each structure is given as a SMILES string.

This experiment addresses T1, Endothelial lipase (Homo sapiens, UniProt Q9Y5X9).
T1 sequence (Q9Y5X9 whole entry): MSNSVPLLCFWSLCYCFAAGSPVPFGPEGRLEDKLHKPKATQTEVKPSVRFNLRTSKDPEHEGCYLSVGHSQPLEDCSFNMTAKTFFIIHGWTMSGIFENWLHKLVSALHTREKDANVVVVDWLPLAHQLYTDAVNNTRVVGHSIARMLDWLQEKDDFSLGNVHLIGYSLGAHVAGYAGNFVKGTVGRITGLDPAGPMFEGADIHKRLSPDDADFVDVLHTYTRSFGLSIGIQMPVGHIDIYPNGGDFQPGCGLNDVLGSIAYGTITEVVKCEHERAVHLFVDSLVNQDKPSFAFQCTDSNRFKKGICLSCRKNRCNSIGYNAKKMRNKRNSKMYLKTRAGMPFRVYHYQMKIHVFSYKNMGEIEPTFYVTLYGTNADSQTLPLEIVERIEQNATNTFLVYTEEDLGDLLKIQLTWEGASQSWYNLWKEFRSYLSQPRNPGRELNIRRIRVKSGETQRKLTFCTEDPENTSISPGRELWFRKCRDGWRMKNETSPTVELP
The experiment can be described thus: Enzyme Assay: For characterization of the enzymatic activity of endothelial lipase and the effect of inhibitors, the phospholipase-specific substrate 1,2-bis(4,4-difluoro-5,7-dimethyl-4-bora-3a,4a-diaza-s-indacene-3-undecanoyl)-sn-glycero-3-phosphocholine (manufacturer: Molecular Probes) was used. Hydrolysis of the A1 ester bond of this phospholipid by the enzyme releases the fluorescent dye Bodipy, which can be detected by measuring the fluorescence after separation by thin-layer chromatography on an HPTLC plate (silica gel 60, Merck) or directly in the reaction vessel. To prepare the substrate solution, 100 ug of 1,2-bis(4,4-difluoro-5,7-dimethyl-4-bora-3a,4a-diaza-s-indacene-3-undecanoyl)-sn-glycero-3-phosphocholine (manufacturer: Molecular Probes) were dissolved in 100 ul of DMSO and taken up in 2.4 mg of tripalmitin (Sigma) in 393 ul of chloroform which contained 20 mg/ml DOPcholine (1,2-dioleoyl-sn-glycero-3-phosphocholine).

For `O=C(NCc1ccccc1OC(F)F)n1sc2ncccc2c1=O`, the IC50 (as a rule, the concentration that inhibits the measured activity by half) was found to be 138 nM. That is a sub-micromolar value.
